According to PubChem BioAssay AID1117324 (Cheminformatics & Chemogenomics Research Group (CCRG), …, 2015):
The source made the active and inactive calls. The rule behind the calls is not given here. *1 amine or outer side, *2 acyl side, *3 side chain or, on linkers, in order; H or OH if unused. Where a SMILES comes first, the peptide text is derived from it. Bridges are numbered along the chain shown (N, C = ends). Roman numbers before positions name the chains, in order. [ ]: non-standard residue; d: D form. Actinocin(9to1) = Cc1c2oc3c(C)ccc(C(=O)[*:1])c3nc-2c(C(=O)[*:2])c(N)c1=O; NMeV = CN[C@H](C(=O)O)C(C)C; Sar = CNCC(=O)O

System: VEGF-stimulated ADSC/ECFC co-culture, nuclear area imaging
Assay: nuclear area loss in endothelial-stromal co-culture, dose response, cell-based, VEGF stimulation, IC50 (AID 1117324)

| SMILES | IC50 |
| --- | --- |
| Cc1c2oc3c(C)ccc(C(=O)N[C@@H]4C(=O)N[C@H](C(C)C)C(=O)N5CCC[C@H]5C(=O)N(C)CC(=O)N(C)[C@@H](C(C)C)C(=O)O[C@@H]4C)c3nc-2c(C(=O)N[C@@H]2C(=O)N[C@H](C(C)C)C(=O)N3CCC[C@H]3C(=O)N(C)CC(=O)N(C)[C@@H](C(C)C)C(=O)O[C@@H]2C)c(N)c1=O (I: T[dV]P[Sar][NMeV] / II: T[dV]P[Sar][NMeV]; ester I:1-I:C, II:1-II:C; linker I:N-II:N via Actinocin(9to1)) | 0.0403 µM |
| CN(C)CCCN1c2ccccc2Sc2ccc(Cl)cc21 | > 10 µM (inactive) |
| Cc1cc2nc3ccc(=[N+](C)C)cc-3sc2cc1N | 8.15 µM (inactive) |
| O=c1[nH]c(=O)n([C@H]2C[C@H](O)[C@@H](CO)O2)cc1Br | > 10 µM (inactive) |
| CC(=O)Nc1ccn(C2COC(COC(=O)c3ccccc3)O2)c(=O)n1 (centres undefined) | > 10 µM (inactive) |
| N/C(=N\N=C\c1ccc(Cl)cc1)N/N=C/c1ccc(Cl)cc1 | > 10 µM (inactive) |
| O=C(Nc1ccc([N+](=O)[O-])cc1Cl)c1cc(Cl)ccc1O | 5.81 µM (inactive) |
| COCC(C)N(C(=O)CCl)c1c(C)csc1C (centres undefined) | > 10 µM (inactive) |
| CC(=O)Oc1ccc(C2(c3ccc(OC(C)=O)cc3)C(=O)Nc3ccccc32)cc1 | > 10 µM (inactive) |
| COc1cc([C@@H]2c3cc4c(cc3[C@@H](O[C@@H]3O[C@@H]5CO[C@@H](C)O[C@@H]5[C@H](O)[C@@H]3O)[C@H]3COC(=O)[C@H]23)OCO4)cc(OC)c1O | 0.967 µM |
| CCCSc1ccc2nc(NC(=O)OC)[nH]c2c1 | > 10 µM (inactive) |
| CCOC(=O)C1=C[C@]2(CC)CCCN3CCc4c(n1c1ccccc41)[C@@H]32 | > 10 µM (inactive) |
| O=c1c(-c2ccccc2)c1-c1ccccc1 | 6.75 µM (inactive) |
| OC[C@@H](O)[C@H](O)[C@H](O)[C@@H](O)CO | > 10 µM (inactive) |
| CN(C)C(=S)SSC(=S)N(C)C | > 10 µM (inactive) |
| CC[C@]12CCCN3CCc4c(n(c5ccccc45)C(=O)C1)[C@@H]32 | > 10 µM (inactive) |
| COC(=O)C1=C(C)NC(C)=C(C(=O)OCCN2CCN(C(c3ccccc3)c3ccccc3)CC2)C1c1cccc([N+](=O)[O-])c1 (centres undefined) | > 10 µM (inactive) |
| CCN(CC)CCNc1ccc(CO)c2sc3ccccc3c(=O)c12 | > 10 µM (inactive) |
| CN(C)c1ccc2nc3ccc(=[N+](C)C)cc-3sc2c1 | > 10 µM (inactive) |
| C[C@@]12C(=O)OC(=O)[C@]1(C)C1CCC2O1 | 8.33 µM (inactive) |
| Cc1ccc2nc(N)[nH]c(=O)c2c1Sc1ccncc1 | > 10 µM (inactive) |
| C#C[C@]1(O)CC[C@H]2[C@@H]3CCc4cc(O)ccc4[C@H]3CC[C@@]21C | > 10 µM (inactive) |
| Cc1cccc(Nc2cc(Cl)nc(SCC(=O)O)n2)c1C | > 10 µM (inactive) |

| SMILES | IC50 |
| --- | --- |
| C#C[C@]1(O)CC[C@@H]2[C@@H]3CCC4=CCCC[C@@H]4[C@H]3C(=C)C[C@@]21CC | 9.57 µM (inactive) |
| CCN(CC)C(=O)/C(C#N)=C/c1cc(O)c(O)c([N+](=O)[O-])c1 | > 10 µM (inactive) |
| C/C=C(/C(=C/C)c1ccc(OC(C)=O)cc1)c1ccc(OC(C)=O)cc1 | > 10 µM (inactive) |
| Oc1ccc(Cl)cc1Sc1cc(Cl)ccc1O | 8.69 µM (inactive) |
| O=C(O)c1ccc2[nH]cc(CCCCN3CC=C(c4ccccc4)CC3)c2c1 | > 10 µM (inactive) |
| COC(=O)Nc1nc2ccc(C(=O)c3cccs3)cc2[nH]1 | > 10 µM (inactive) |
| CCCCCCCCCCCCCC[N+](C)(C)Cc1ccccc1 | 8.36 µM (inactive) |
| CC12CCC(CC1)C(C)(C)O2 | > 10 µM (inactive) |
| Nc1nc(=O)n([C@@H]2O[C@H](CO)[C@@H](O)[C@@H]2F)cc1I | > 10 µM (inactive) |
| C=CCN1CC[C@]23CCCC[C@H]2[C@H]1Cc1ccc(O)cc13 | > 10 µM (inactive) |
| O=C1CC(c2ccc(Cl)cc2)CC(=O)N1 | > 10 µM (inactive) |
| CCCCCCCCCCCCCCCCCCNC(=O)OC1CCN(C(=O)OC[C@H](COC(=O)N(Cc2cccc[n+]2CC)C(=O)c2ccccc2OC)OC)CC1 | > 10 µM (inactive) |
| Cc1onc(-c2c(Cl)cccc2Cl)c1C(=O)Cl | > 10 µM (inactive) |
| CC(C)(CO)[C@@H](O)C(=O)NCCC(=O)NCCSSCCNC(=O)CCNC(=O)[C@H](O)C(C)(C)CO | > 10 µM (inactive) |
| CCCCCCC[N+](CC)(CC)CCCCc1ccc(Cl)cc1 | > 10 µM (inactive) |
| CCCCCN=C(N)N/N=C/c1c[nH]c2ccc(OC)cc12 | 7.17 µM (inactive) |
| O=C1c2ccccc2C(=O)C1C(=O)C(c1ccccc1)c1ccccc1 | > 10 µM (inactive) |
| Cc1c(O)cc2c(c1C)O[C@](C)(CCC[C@H](C)CCC[C@H](C)CCCC(C)C)CC2 | > 10 µM (inactive) |
| COc1cc(S(N)(=O)=O)cc(C(=O)O)c1OC | > 10 µM (inactive) |
| C1CN(P2(N3CC3)=NP(N3CC3)(N3CC3)=NP(N3CC3)(N3CC3)=N2)CCO1 (centres undefined) | > 10 µM (inactive) |
| Clc1cc(Cl)c(OCC#CI)cc1Cl | > 10 µM (inactive) |
| O=C(Nc1ccc(S(=O)(=O)N2CCOCC2)cc1)c1cc(Cl)ccc1NS(=O)(=O)c1ccc(Cl)s1 | > 10 µM (inactive) |
| O=C(Nc1ccc(Br)cc1)c1cc(Br)cc(Br)c1O | > 10 µM (inactive) |

| SMILES | IC50 |
| --- | --- |
| CC(=O)N(O)CCCCCNC(=O)CCC(=O)N(O)CCCCCNC(=O)CCC(=O)N(O)CCCCCN | > 10 µM (inactive) |
| CC(=O)Oc1ccccc1C(=O)Nc1ncc([N+](=O)[O-])s1 | > 10 µM (inactive) |
| CCCCCCCCOc1ccccc1C(=O)Nc1ccc(C(=O)OCC[N+](C)(CC)CC)cc1 | 8.47 µM (inactive) |
| S=C=Nc1ccc(N=C=S)cc1 | > 10 µM (inactive) |
| C[C@H]1O[C@@H](O[C@H]2CC[C@@]3(C)[C@H](CC[C@@H]4[C@@H]3C[C@@H](O)[C@]3(C)[C@@H](C5=CC(=O)OC5)CC[C@]43O)C2)C[C@H](O)[C@@H]1O[C@H]1C[C@H](O)[C@H](O[C@H]2C[C@H](O)[C@H](O[C@@H]3O[C@H](CO)[C@@H](O)[C@H](O)[C@H]3O)[C@@H](C)O2)[C@@H](C)O1 | 0.299 µM |
| C[S+](CC[C@H](N)C(=O)O)C[C@H]1O[C@@H](n2cnc3c(N)ncnc32)[C@H](O)[C@H]1O (some centres undefined) | > 10 µM (inactive) |
| COc1cccc(CCc2ccccc2OCC(CN(C)C)OC(=O)CCC(=O)O)c1 (centres undefined) | > 10 µM (inactive) |
| Clc1ccc(COC(Cn2ccnc2)c2ccc(Cl)cc2Cl)cc1 (centres undefined) | 9.93 µM (inactive) |
| Cc1c(C)c2c(c(C)c1O)CCC(C)(COc1ccc(CC3SC(=O)NC3=O)cc1)O2 (centres undefined) | > 10 µM (inactive) |
| CCOC(=O)c1ccccc1C(=O)OCC | > 10 µM (inactive) |
| CN1CCN(CCCN2c3ccccc3Sc3ccc(C(F)(F)F)cc32)CC1 | > 10 µM (inactive) |
| CC1=C(/C=C/C(C)=C/C=C/C(C)=C/C(=O)Nc2ccc(O)cc2)C(C)(C)CCC1 | 6.24 µM (inactive) |
| CCOC(=O)NC(C)(C)Cc1ccc(Cl)cc1 | > 10 µM (inactive) |
| CCCCN1CCCC1C(=O)Nc1c(C)cc(C)cc1C (centres undefined) | > 10 µM (inactive) |
| Cc1cc(O)c2ccccc2c1O | 9.85 µM (inactive) |
| COC(=O)c1nc(Cl)c(Cl)nc1N | 6.8 µM (inactive) |
| COc1ccccc1OCCNCC(O)COc1cccc2[nH]c3ccccc3c12 (centres undefined) | > 10 µM (inactive) |
| Oc1cc(Cl)ccc1Oc1ccc(Cl)cc1Cl | 8.1 µM (inactive) |
| CC1=C(C(=O)OC(C)C)C(c2cccc([N+](=O)[O-])c2)C(C(=O)OC2CN(C(c3ccccc3)c3ccccc3)C2)=C(N)N1 (centres undefined) | 7.39 µM (inactive) |
| CCCCN(CCCC)CCC(O)c1cc2c(Cl)cc(Cl)cc2c2cc(C(F)(F)F)ccc12 (centres undefined) | > 10 µM (inactive) |
| Cn1cc(S(C)=O)c(=O)c2ccc(F)cc21 (centres undefined) | > 10 µM (inactive) |
| COCC(=O)O[C@]1(CCN(C)CCCc2nc3ccccc3[nH]2)CCc2cc(F)ccc2[C@@H]1C(C)C | > 10 µM (inactive) |
| COCc1c(C(C)C)nc(C(C)C)c(/C=C/[C@@H](O)C[C@@H](O)CC(=O)O)c1-c1ccc(F)cc1 | 0.259 µM |

| SMILES | IC50 |
| --- | --- |
| O=c1[nH]cc(F)c(=O)[nH]1 | > 10 µM (inactive) |
| CCN(CC)C(=O)c1cccnc1 | > 10 µM (inactive) |
| O=C(O)CCCc1ccc(N(CCCl)CCCl)cc1 | > 10 µM (inactive) |
| O=C(CCl)c1ccc(Cl)cc1Cl | 6.17 µM (inactive) |
| COc1cccc2c1C(=O)c1c(O)c3c(c(O)c1C2=O)C[C@@](O)(C(=O)CO)C[C@@H]3O[C@H]1C[C@H](N)[C@H](O[C@@H]2CCCCO2)[C@H](C)O1 | 0.995 µM |
| Cc1c(C)c2c(c(C)c1OC(=O)CCC(=O)O)CC[C@@](C)(CCC[C@H](C)CCC[C@H](C)CCCC(C)C)O2 | > 10 µM (inactive) |
| O=C(O)C1CCC1 | > 10 µM (inactive) |
| CO[C@@H]1[C@@H](OC)[C@H](C)[C@@](O)(CC(=O)O)O[C@H]1[C@H](C)[C@H]1O[C@@]2(CC[C@@](C)([C@H]3CC[C@@](C)([C@@H]4O[C@@H]([C@H]5O[C@](C)(O)[C@H](C)C[C@@H]5C)C[C@@H]4OC4C[C@H](OC)[C@@H](OC)[C@H](C)O4)O3)O2)C[C@H](O)[C@H]1C (some centres undefined) | 2.57 µM |
| CC(=O)c1ccc(OCC(=O)N2CCCCC2)cc1 | > 10 µM (inactive) |
| CCCCCCCCCCCC[N+](C)(C)CCOc1ccccc1 | 7.29 µM (inactive) |
| CCCOc1ccc2nc(NC(=O)OC)[nH]c2c1 | > 10 µM (inactive) |
| Oc1ccc(Cl)cc1Cc1cc(Cl)ccc1O | 6 µM (inactive) |
| Cc1ccc(Nc2c(F)cccc2Cl)c(CC(=O)O)c1 | > 10 µM (inactive) |
| CC(COc1ccccc1)NN (centres undefined) | > 10 µM (inactive) |
| Clc1ccc(Nc2nnc(Cc3ccncc3)c3ccccc23)cc1 | > 10 µM (inactive) |
| CCC1C(=O)OCC1Cc1cncn1C (centres undefined) | > 10 µM (inactive) |
| CC(CC=O)CCCC(C)(C)O (centres undefined) | > 10 µM (inactive) |
| NC(=O)n1c(O)c(C(=O)c2cccs2)c2cc(Cl)ccc21 | > 10 µM (inactive) |
| CCC1=C[C@@H]2CN(C1)Cc1c([nH]c3ccccc13)[C@@](C(=O)OC)(c1cc3c(cc1OC)N(C)[C@H]1[C@@](O)(C(=O)OC)[C@H](OC(C)=O)[C@]4(CC)C=CCN5CC[C@]31[C@@H]54)C2 | > 10 µM (inactive) |
| O[C@@H](c1cc(C(F)(F)F)nc2c(C(F)(F)F)cccc12)[C@H]1CCCCN1 | 8.61 µM (inactive) |
